According to ChEMBL document CHEMBL1147719, “Two novel aromatic valerenane-type sesquiterpenes from the Chinese green alga Caulerpa taxifolia” (Bioorg Med Chem Lett, 2006):

Molecular target: T1, Tyrosine-protein phosphatase non-receptor type 1 (Homo sapiens, UniProt P18031)
T1 sequence (P18031 whole entry): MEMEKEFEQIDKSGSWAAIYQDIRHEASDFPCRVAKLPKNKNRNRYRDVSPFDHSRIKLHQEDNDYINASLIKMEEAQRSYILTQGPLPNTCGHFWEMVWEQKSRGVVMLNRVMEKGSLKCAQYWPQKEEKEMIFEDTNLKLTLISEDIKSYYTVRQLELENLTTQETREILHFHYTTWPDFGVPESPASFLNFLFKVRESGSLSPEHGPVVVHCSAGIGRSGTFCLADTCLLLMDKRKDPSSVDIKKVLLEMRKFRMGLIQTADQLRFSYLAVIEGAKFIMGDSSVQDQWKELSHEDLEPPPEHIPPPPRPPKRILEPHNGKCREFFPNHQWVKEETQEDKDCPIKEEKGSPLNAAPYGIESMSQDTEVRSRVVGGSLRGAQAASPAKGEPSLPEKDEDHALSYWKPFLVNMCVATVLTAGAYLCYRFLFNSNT
Experiment: Inhibition of human PTP1B

## COC(=O)/C1=C/c2c([nH]c3ccccc23)/C(C(=O)OC)=C\c2c1[nH]c1ccccc21 [CAULERPIN]
  IC50: 3.77 µM
